The text below walks through data of ChEMBL document CHEMBL3421536, “Identification of 4-(4-nitro-2-phenethoxyphenyl)pyridine as a promising new lead for discovering inhibitors of both human and rat 11β-Hydroxylase” (Eur J Med Chem, 2015).

The target of data set [1] is T1, Cytochrome P450 11B1, mitochondrial (Homo sapiens, UniProt P15538).
T1 sequence (P15538 whole entry): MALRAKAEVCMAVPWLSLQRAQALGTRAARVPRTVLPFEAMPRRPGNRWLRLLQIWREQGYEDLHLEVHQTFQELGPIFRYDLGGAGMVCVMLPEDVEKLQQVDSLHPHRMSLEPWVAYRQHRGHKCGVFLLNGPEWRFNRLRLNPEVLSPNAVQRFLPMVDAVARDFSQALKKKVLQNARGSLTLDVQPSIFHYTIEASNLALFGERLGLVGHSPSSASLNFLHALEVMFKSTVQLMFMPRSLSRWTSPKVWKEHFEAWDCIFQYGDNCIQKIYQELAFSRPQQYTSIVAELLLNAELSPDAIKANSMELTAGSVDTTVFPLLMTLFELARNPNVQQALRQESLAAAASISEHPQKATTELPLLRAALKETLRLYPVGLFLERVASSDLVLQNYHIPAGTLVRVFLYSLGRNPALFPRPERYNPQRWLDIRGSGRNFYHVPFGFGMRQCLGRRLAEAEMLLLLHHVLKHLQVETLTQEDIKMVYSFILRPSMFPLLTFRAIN
The data set is described as follows: Inhibition of human CYP11B1 expressed in hamster fibroblast using 100 nM [3H]-11-deoxycorticosterone as substrate after 25 mins by HPLC analysis.

Data set [2] is described as follows: Retention time of the compound by HPLC analysis. It is filed as physicochemical.
In data set [3] the target is T2, Cytochrome P450 11B1, mitochondrial (Rattus norvegicus, UniProt P15393).
T2 sequence (P15393 whole entry): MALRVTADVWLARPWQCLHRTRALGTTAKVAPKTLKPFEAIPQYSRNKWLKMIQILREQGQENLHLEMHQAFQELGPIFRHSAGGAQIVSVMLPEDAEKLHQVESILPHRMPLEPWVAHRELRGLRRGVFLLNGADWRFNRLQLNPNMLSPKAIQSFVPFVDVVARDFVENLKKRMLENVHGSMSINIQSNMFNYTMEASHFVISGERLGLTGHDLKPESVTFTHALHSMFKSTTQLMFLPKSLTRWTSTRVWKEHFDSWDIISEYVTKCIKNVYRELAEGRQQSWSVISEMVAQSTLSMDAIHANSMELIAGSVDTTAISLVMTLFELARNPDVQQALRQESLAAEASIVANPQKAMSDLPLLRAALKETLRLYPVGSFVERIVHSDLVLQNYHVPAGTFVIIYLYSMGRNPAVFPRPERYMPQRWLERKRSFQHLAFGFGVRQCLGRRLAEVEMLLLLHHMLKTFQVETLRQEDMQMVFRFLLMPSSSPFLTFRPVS
The data set is described as follows: Inhibition of rat CYP11B1 expressed in hamster fibroblast using 500 nM [3H]-11-deoxycorticosterone as substrate after 7 hrs by HPLC analysis.

The species named for data set [4] is Homo sapiens. Briefly: Selectivity index, ratio of IC50 for human CYP11B2 to IC50 for human CYP11B1.
Data set [5] deals with T3, Aromatase (Homo sapiens, UniProt P11511).
T3 sequence (P11511 whole entry): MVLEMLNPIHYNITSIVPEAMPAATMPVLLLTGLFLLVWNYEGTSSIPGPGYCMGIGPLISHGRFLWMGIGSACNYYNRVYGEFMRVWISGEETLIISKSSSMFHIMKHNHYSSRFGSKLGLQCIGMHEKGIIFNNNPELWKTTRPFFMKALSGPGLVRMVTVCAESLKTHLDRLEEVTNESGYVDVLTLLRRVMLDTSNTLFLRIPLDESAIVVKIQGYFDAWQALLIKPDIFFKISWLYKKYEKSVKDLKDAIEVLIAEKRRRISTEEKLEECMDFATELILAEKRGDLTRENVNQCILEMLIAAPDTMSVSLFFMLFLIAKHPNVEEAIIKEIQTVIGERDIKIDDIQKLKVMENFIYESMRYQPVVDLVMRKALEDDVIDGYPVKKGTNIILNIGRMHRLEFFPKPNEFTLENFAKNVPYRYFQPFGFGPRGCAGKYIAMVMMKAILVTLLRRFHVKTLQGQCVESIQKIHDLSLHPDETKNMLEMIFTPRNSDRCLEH
The data set is described as follows: Inhibition of human CYP19 expressed in hamster fibroblast using 500 nM [1beta-3H] androstenedione as substrate by HPLC analysis.

For data set [6], the target named is T4, Cytochrome P450 11B2, mitochondrial (Homo sapiens, UniProt P19099).
T4 sequence (P19099 whole entry): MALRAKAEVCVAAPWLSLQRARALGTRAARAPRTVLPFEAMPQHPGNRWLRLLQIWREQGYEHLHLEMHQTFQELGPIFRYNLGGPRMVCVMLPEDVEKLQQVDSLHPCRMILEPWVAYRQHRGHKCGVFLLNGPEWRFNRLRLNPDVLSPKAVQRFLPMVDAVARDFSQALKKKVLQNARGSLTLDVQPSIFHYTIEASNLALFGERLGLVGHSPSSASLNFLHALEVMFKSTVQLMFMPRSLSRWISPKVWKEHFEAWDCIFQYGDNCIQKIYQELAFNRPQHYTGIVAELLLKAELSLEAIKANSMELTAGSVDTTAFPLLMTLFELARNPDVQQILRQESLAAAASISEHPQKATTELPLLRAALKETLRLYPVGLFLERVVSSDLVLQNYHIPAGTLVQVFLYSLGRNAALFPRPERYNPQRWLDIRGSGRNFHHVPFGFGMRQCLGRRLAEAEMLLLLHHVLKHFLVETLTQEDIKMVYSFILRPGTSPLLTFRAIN
Briefly: Inhibition of human CYP11B2 expressed in hamster fibroblast using 100 nM [3H]-11-deoxycorticosterone as substrate after 45 mins by HPLC analysis.

By IC50 is commonly meant the concentration that inhibits the measured activity by half. Lower therefore signals greater potency.

In the case of `N#Cc1ccc(-c2ccncc2)c(OCCc2ccccc2)c1`, the concentration for half-maximal inhibition (IC50) was determined as 12 nM in data set [1], 441 nM in data set [3], 1550 nM in data set [5] and 23 nM in data set [6]. Moreover, the Retention_time in data set [2] was determined as 8.71 min. The Selectivity Index in data set [4] came out at 1.9.
In the case of `O=[N+]([O-])c1ccc(-c2ccncc2)c(OCCCc2ccccc2)c1`, the IC50 was 8 nM in data set [1], 370 nM in data set [3], 4990 nM in data set [5] and 18 nM in data set [6]. The compound also had a Retention_time in data set [2] of 9.33 min. In data set [4], the Selectivity Index came to 2.4.
